Experimental data: US20250376691A1, “FLOTATION OF CULTURED EMBRYO EXPLANTS FOR IMPROVED PLANT REGENERATION EFFICIENCY” (Monsanto Technology LLC, priority 2022, published 2025)

System: corn seed excised explants
Test: Agrobacterium-mediated transformation and shoot/plant regeneration of corn seed excised explants (shoot frequency, normal shoot frequency, normal plant frequency)
Format: cell-based
Experimental: The shoot frequency was calculated as the number of inoculated explants producing shoots divided by the total number of inoculated explants.
The shoot frequency was calculated as the number of inoculated explants producing shoots divided by the total number of inoculated explants. […] The normal shoot frequency was calculated as the number of normal shoots divided by the total number of inoculated explants.

O=C(O)COc1ccc(Cl)cc1Cl [2,4-D, 2,4-dichlorophenoxyacetic acid]
average normal plant frequency when 2,4-D was present in co-culture medium (4 and 5 day co-culture combined): 0.73%
average normal plant frequency (%), 2,4-D Present in Co-Culture (co-culture 4 days): 0.85%
average normal plant frequency (%), 2,4-D Present in Co-Culture (co-culture 5 days): 0.5%
Fold Increase in normal plant frequency without 2,4-D versus with 2,4-D, overall/average (co-culture medium, 17 experiments): 1.8
